“And” between values parts separate entries of the source, which are not always exact repeats. Equal values may be shown once.
Biological target: T1, Human CYP17 (Homo sapiens, UniProt P05093)
T1 construct: made in house; host or cells: Escherichia coli (5,000 g sediment of the homogenate)
T1 sequence (P05093 1-508): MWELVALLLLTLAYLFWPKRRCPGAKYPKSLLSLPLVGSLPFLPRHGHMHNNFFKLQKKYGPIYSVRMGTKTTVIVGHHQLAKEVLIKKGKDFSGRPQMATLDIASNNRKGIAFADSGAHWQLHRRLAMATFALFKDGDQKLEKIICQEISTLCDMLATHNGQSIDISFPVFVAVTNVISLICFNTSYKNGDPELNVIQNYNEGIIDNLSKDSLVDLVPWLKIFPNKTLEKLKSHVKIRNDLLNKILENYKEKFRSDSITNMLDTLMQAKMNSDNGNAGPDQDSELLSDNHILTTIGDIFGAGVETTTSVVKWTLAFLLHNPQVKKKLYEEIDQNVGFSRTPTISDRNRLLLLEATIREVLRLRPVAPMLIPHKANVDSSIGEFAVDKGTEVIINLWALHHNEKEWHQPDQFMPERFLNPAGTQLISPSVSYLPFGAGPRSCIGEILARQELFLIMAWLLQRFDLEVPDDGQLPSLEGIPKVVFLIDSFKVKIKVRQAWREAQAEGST
Assay: not given
Set-up: method as in Sergejew and Hartmann, 1994
Conditions: reference inhibitor; ref Sergejew and Hartmann, 1994; cited from earlier work

| Compound | IC50 [nM] |
| --- | --- |
| C[C@]12CC[C@H](O)CC1=CC[C@@H]1[C@@H]2CC[C@]2(C)C(c3cccnc3)=CC[C@@H]12 [Abiraterone] | 100 |

Biological target: T1, Human CYP17
Assay: CYP17 inhibition assay
Assay type: biochemical
Conditions: at 10 μM concentration
Procedure: The inhibition of CYP17 was investigated using the 5,000 g sediment of homogenized Escherichia coli (Ehmer et al., [2000]). Human CYP17 along with NADPH-P450 reductase was used to perform the assay as described previously. The incubation time for the reaction was 30 min at 37°C. The reaction was started by adding [^3H]-progesterone, and was quenched with 1 M HCl. The reaction mixture was extracted twice with ethyl acetate at 4°C in order to avoid impurities. The samples were dried, prepared with methanol, and analyzed with radio-HPLC. DSMO was used as negative control.

| Compound | inhibition at 10 µM [%] |
| --- | --- |
| CC(OCc1ccc(F)cc1)n1ccnc1 (centres unmarked) [Compound 9] | ≤ 3 |
| COc1cc(Cl)c(S(=O)(=O)n2ccnc2)cc1Cl [Compound 10] | ≤ 3 |
| c1ccc2c(-c3nn4cnnc4s3)cccc2c1 [Compound 12] | ≤ 3 |
| CC(C)CC(=O)Nc1ccc(Cc2ccncc2)cc1 [Compound 8] | ≤ 3 |

Same assay, conditions: at 10 μM concentration; human CYP17 from Escherichia coli; n.i. = not inhibited

| Compound | CYP17 inhibition |
| --- | --- |
| CC(OCc1ccc(F)cc1)n1ccnc1 (centres unmarked) [Compound 9] | n.i. |
| COc1cc(Cl)c(S(=O)(=O)n2ccnc2)cc1Cl [Compound 10] | n.i. |
| c1ccc2c(-c3nn4cnnc4s3)cccc2c1 [Compound 12] | n.i. |
| CC(C)CC(=O)Nc1ccc(Cc2ccncc2)cc1 [Compound 8] | n.i.^e |

Biological target: T2, human CYP11B1 (Homo sapiens, UniProt P15538)
T2 construct: expressed in transfected cells; host or cells: hamster V79MZh cells
T2 sequence (P15538 25-503): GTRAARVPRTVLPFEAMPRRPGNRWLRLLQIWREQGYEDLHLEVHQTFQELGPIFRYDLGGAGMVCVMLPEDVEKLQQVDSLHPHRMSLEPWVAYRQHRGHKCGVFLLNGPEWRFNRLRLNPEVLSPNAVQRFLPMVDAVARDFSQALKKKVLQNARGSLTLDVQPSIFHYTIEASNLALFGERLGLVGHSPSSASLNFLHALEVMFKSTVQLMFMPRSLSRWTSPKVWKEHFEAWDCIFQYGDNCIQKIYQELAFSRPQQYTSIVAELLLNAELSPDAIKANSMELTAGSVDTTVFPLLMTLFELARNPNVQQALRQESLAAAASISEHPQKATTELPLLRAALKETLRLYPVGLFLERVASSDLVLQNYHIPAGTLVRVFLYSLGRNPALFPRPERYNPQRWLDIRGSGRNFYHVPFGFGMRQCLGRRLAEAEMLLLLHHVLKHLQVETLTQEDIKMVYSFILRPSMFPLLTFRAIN
Assay: CYP11B1 inhibition assay in V79MZh cells
Assay type: cell-based
Conditions: at 10 μM concentration; V79MZh cells
Procedure: (§1) The selected potential inhibitors were dissolved in DMSO at a concentration of 10 mM to generate stock solutions. Various aliquots were then made from fresh stock solutions and each aliquot was tested only once.
(§2) The selected hits were evaluated for their inhibition of human CYP11B1 and CYP11B2 enzymes expressed in hamster V79MZh cells. Approximately […] V79MZh cells were cultured in 24-well cell culture plates for 24 h. The area of each well was 1.9 cm^2. The cells were exposed to various concentrations of inhibitor solutions. The reactions were started by incubating the cells with [^3H]11-deoxycorticosterone. The incubation time for CYP11B1 cells was 15–60 and 50–120 min for CYP11B2 cells. The reactions were stopped by extracting the supernatant with cold ethyl acetate at 4°C. Samples were mixed (10 min), and centrifuged (12,500 rpm). The organic (upper) layer was separated into fresh Eppendorf tubes and dried. The steroids were re-dissolved in methanol-water (65–35%) and were analyzed by radio-HPLC (Denner et al., [1995a]; Ehmer et al., [2002]).

| Compound | inhibition at 10 µM [%] |
| --- | --- |
| CC(OCc1ccc(F)cc1)n1ccnc1 (centres unmarked) [Compound 9] | > 50 |
| COc1cc(Cl)c(S(=O)(=O)n2ccnc2)cc1Cl [Compound 10] | > 50 |
| c1ccc2c(-c3nn4cnnc4s3)cccc2c1 [Compound 12] | 33 ± 6 |
| CC(C)CC(=O)Nc1ccc(Cc2ccncc2)cc1 [Compound 8] | > 50 |

Same assay, conditions: human CYP11B1 expressed in hamster V79MZh cells; mean of at least three experiments

| Compound | IC50 [nM] |
| --- | --- |
| CC(OCc1ccc(F)cc1)n1ccnc1 (centres unmarked) [Compound 9] | 210 ± 40 |
| COc1cc(Cl)c(S(=O)(=O)n2ccnc2)cc1Cl [Compound 10] | 130 ± 20 |
| CC(C)CC(=O)Nc1ccc(Cc2ccncc2)cc1 [Compound 8] | 3040 ± 720 |

Biological target: T3, human CYP11B2 (Homo sapiens, UniProt P19099)
T3 construct: expressed in transfected cells; host or cells: hamster V79MZh cells
T3 sequence (P19099 25-503): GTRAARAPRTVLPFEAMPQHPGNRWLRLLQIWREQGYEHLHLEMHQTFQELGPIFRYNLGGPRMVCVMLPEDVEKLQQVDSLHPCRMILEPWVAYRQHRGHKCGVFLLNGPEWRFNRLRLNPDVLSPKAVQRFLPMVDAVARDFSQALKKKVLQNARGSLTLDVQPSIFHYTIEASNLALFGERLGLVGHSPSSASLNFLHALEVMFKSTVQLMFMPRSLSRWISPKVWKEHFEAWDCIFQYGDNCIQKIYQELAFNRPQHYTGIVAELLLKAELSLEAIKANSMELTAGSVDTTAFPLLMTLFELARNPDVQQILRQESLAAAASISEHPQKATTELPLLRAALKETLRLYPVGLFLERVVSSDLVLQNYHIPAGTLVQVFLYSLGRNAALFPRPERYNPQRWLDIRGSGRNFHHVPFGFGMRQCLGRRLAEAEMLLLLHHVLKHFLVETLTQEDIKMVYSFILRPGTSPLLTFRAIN
Assay: CYP11B2 inhibition assay in V79MZh cells
Assay type: cell-based
Conditions: at 10 μM concentration; V79MZh cells
Procedure: as §1, §2

| Compound | inhibition at 10 µM [%] |
| --- | --- |
| CC(OCc1ccc(F)cc1)n1ccnc1 (centres unmarked) [Compound 9] | > 50 |
| COc1cc(Cl)c(S(=O)(=O)n2ccnc2)cc1Cl [Compound 10] | > 50 |
| CC(C)CC(=O)Nc1ccc(Cc2ccncc2)cc1 [Compound 8] | > 50 |

Same assay, conditions: human CYP11B2 expressed in hamster V79MZh cells; mean of at least three experiments

| Compound | IC50 |
| --- | --- |
| CC(OCc1ccc(F)cc1)n1ccnc1 (centres unmarked) [Compound 9] | 80 ± 5 nM |
| COc1cc(Cl)c(S(=O)(=O)n2ccnc2)cc1Cl [Compound 10] | 110 ± 20 nM |
| c1ccc2c(-c3nn4cnnc4s3)cccc2c1 [Compound 12] | 1100 nM and 1120 nM |
| CC(C)CC(=O)Nc1ccc(Cc2ccncc2)cc1 [Compound 8] | 2770 ± 480 nM |

— article PMC5742115, “Pharmacophore Modeling and in Silico/in Vitro Screening for Human Cytochrome P450 11B1 and Cytochrome P450 11B2 Inhibitors” (Frontiers in Chemistry, 2017)
